# What was measured:
# Candida parapsilosis [1] = experiment: Antimicrobial activity against Candida parapsilosis MTCC 1744 after 24 hrs by well diffusion method; type: functional; details: Lodderomyces parapsilosis, MTCC 1744, 24 h
# [Candida] aaseri [2] = Antimicrobial activity against Candida aaseri MTCC 1962 after 24 hrs by well diffusion method; type: functional; details: Yamadazyma aaseri, MTCC 1962, 24 h
# Nakaseomyces glabratus [3] = experiment: Antimicrobial activity against Candida glabrata MTCC 3019 after 24 hrs by well diffusion method; type: functional; details: MTCC 3019, 24 h
# Pichia kudriavzevii [4] = experiment: Antimicrobial activity against Candida krusei MTCC 3020 after 24 hrs by well diffusion method; type: functional; details: MTCC 3020, 24 h
# Pichia sporocuriosa [5] = experiment: Antimicrobial activity against Issatchenkia hanoiensis MTCC 4755 after 24 hrs by well diffusion method; type: functional; details: MTCC 4755, 24 h
# Candida albicans [6] = experiment: Fungicidal activity against Candida albicans MTCC 183 after 24 hrs by serial dilution method; type: functional; details: MTCC 183, 24 h
# Candida albicans [7] = experiment: Fungicidal activity against Candida albicans MTCC 227 after 24 hrs by serial dilution method; type: functional; details: MTCC 227, 24 h
# Candida albicans [8] = experiment: Fungicidal activity against Candida albicans MTCC 854 after 24 hrs by serial dilution method; type: functional; details: MTCC 854, 24 h
# Candida albicans [9] = experiment: Fungicidal activity against Candida albicans MTCC 1637 after 24 hrs by serial dilution method; type: functional; details: MTCC 1637, 24 h
# Candida albicans [10] = experiment: Fungicidal activity against Candida albicans MTCC 3017 after 24 hrs by serial dilution method; type: functional; details: MTCC 3017, 24 h
# Candida albicans [11] = experiment: Fungicidal activity against Candida albicans MTCC 3018 after 24 hrs by serial dilution method; type: functional; details: MTCC 3018, 24 h
# Candida albicans [12] = experiment: Fungicidal activity against Candida albicans MTCC 3958 after 24 hrs by serial dilution method; type: functional; details: MTCC 3958, 24 h
# Candida albicans [13] = experiment: Fungicidal activity against Candida albicans MTCC 4748 after 24 hrs by serial dilution method; type: functional; details: MTCC 4748, 24 h
# Candida albicans [14] = experiment: Fungicidal activity against Candida albicans MTCC 7315 after 24 hrs by serial dilution method; type: functional; details: MTCC 7315, 24 h
# Candida parapsilosis [15] = experiment: Fungicidal activity against Candida parapsilosis MTCC 1744 after 24 hrs by serial dilution method; type: functional; details: Lodderomyces parapsilosis, MTCC 1744, 24 h
# [Candida] aaseri [16] = Fungicidal activity against Candida aaseri MTCC 1962 after 24 hrs by serial dilution method; type: functional; details: Yamadazyma aaseri, MTCC 1962, 24 h
# Nakaseomyces glabratus [17] = experiment: Fungicidal activity against Candida glabrata MTCC 3019 after 24 hrs by serial dilution method; type: functional; details: MTCC 3019, 24 h
# Pichia kudriavzevii [18] = experiment: Fungicidal activity against Candida krusei MTCC 3020 after 24 hrs by serial dilution method; type: functional; details: MTCC 3020, 24 h
# Pichia sporocuriosa [19] = experiment: Fungicidal activity against Issatchenkia hanoiensis MTCC 4755 after 24 hrs by serial dilution method; type: functional; details: MTCC 4755, 24 h
# A549 = experiment: Cytotoxicity against human A549 cells after 72 hrs by XTT assay; type: functional, cell-based; details: A549, 72 h
# [20] = Cytotoxicity against human PC3 cells after 72 hrs by XTT assay; type: functional, cell-based; details: PC-3, 72 h
# Staphylococcus aureus [21] = experiment: Antimicrobial activity against Staphylococcus aureus MTCC 96 after 24 hrs by well diffusion method; type: functional; details: MTCC 96, 24 h
# Bacillus subtilis [22] = experiment: Antimicrobial activity against Bacillus subtilis MTCC 121 after 24 hrs by well diffusion method; type: functional; details: MTCC 121, 24 h
# Staphylococcus aureus [23] = experiment: Antimicrobial activity against Staphylococcus aureus MLS16 MTCC 2940 after 24 hrs by well diffusion method; type: functional; details: MLS16 MTCC 2940, 24 h
# Micrococcus luteus [24] = experiment: Antimicrobial activity against Micrococcus luteus MTCC 2470 after 24 hrs by well diffusion method; type: functional; details: MTCC 2470, 24 h
# Raoultella planticola [25] = experiment: Antimicrobial activity against Klebsiella planticola MTCC 530 after 24 hrs by well diffusion method; type: functional; details: MTCC 530, 24 h
# Escherichia coli = experiment: Antimicrobial activity against Escherichia coli MTCC 739 after 24 hrs by well diffusion method; type: functional; details: MTCC 739, 24 h
# Pseudomonas aeruginosa = experiment: Antimicrobial activity against Pseudomonas aeruginosa MTCC 2453 after 24 hrs by well diffusion method; type: functional; details: MTCC 2453, 24 h
# Candida albicans [26] = experiment: Antimicrobial activity against Candida albicans MTCC 3017 after 24 hrs by well diffusion method; type: functional; details: MTCC 3017, 24 h
# Bacillus subtilis [27] = experiment: Bactericidal activity against Bacillus subtilis MTCC 121 after 24 hrs by serial dilution method; type: functional; details: MTCC 121, 24 h
# Staphylococcus aureus [28] = experiment: Bactericidal activity against Staphylococcus aureus MTCC 96 after 24 hrs by serial dilution method; type: functional; details: MTCC 96, 24 h
# Staphylococcus aureus [29] = experiment: Bactericidal activity against Staphylococcus aureus MLS16 MTCC 2940 after 24 hrs by serial dilution method; type: functional; details: MLS16 MTCC 2940, 24 h
# Micrococcus luteus [30] = experiment: Bactericidal activity against Micrococcus luteus MTCC 2470 after 24 hrs by serial dilution method; type: functional; details: MTCC 2470, 24 h
# Raoultella planticola [31] = experiment: Bactericidal activity against Klebsiella planticola MTCC 530 after 24 hrs by serial dilution method; type: functional; details: MTCC 530, 24 h
# Bacillus subtilis [32] = experiment: Antibiofilm activity against Bacillus subtilis MTCC 121 after 24 hrs by crystal violet staining based assay; type: functional, organism-based; details: MTCC 121, 24 h
# Staphylococcus aureus [33] = experiment: Antibiofilm activity against Staphylococcus aureus MTCC 96 after 24 hrs by crystal violet staining based assay; type: functional, organism-based; details: MTCC 96, 24 h
# Staphylococcus aureus [34] = experiment: Antibiofilm activity against Staphylococcus aureus MLS16 MTCC 2940 after 24 hrs by crystal violet staining based assay; type: functional, organism-based; details: MLS16 MTCC 2940, 24 h
# Micrococcus luteus [35] = experiment: Antibiofilm activity against Micrococcus luteus MTCC 2470 after 24 hrs by crystal violet staining based assay; type: functional, organism-based; details: MTCC 2470, 24 h
# Raoultella planticola [36] = experiment: Antibiofilm activity against Klebsiella planticola MTCC 530 after 24 hrs by crystal violet staining based assay; type: functional, organism-based; details: MTCC 530, 24 h
# Candida albicans [37] = experiment: Antimicrobial activity against Candida albicans MTCC 183 after 24 hrs by well diffusion method; type: functional; details: MTCC 183, 24 h
# Candida albicans [38] = experiment: Antimicrobial activity against Candida albicans MTCC 227 after 24 hrs by well diffusion method; type: functional; details: MTCC 227, 24 h
# Candida albicans [39] = experiment: Antimicrobial activity against Candida albicans MTCC 854 after 24 hrs by well diffusion method; type: functional; details: MTCC 854, 24 h
# Candida albicans [40] = experiment: Antimicrobial activity against Candida albicans MTCC 1637 after 24 hrs by well diffusion method; type: functional; details: MTCC 1637, 24 h
# Candida albicans [41] = experiment: Antimicrobial activity against Candida albicans MTCC 3018 after 24 hrs by well diffusion method; type: functional; details: MTCC 3018, 24 h
# Candida albicans [42] = experiment: Antimicrobial activity against Candida albicans MTCC 3958 after 24 hrs by well diffusion method; type: functional; details: MTCC 3958, 24 h
# Candida albicans [43] = experiment: Antimicrobial activity against Candida albicans MTCC 4748 after 24 hrs by well diffusion method; type: functional; details: MTCC 4748, 24 h
# Candida albicans [44] = experiment: Antimicrobial activity against Candida albicans MTCC 7315 after 24 hrs by well diffusion method; type: functional; details: MTCC 7315, 24 h
smiles,measurement,setting,value
O=C1C=C(N2CC2)C(=O)C(c2cc(-c3ccc(C(=O)N4CCOCC4)s3)on2)=C1N1CC1,MIC,Candida parapsilosis [1],15.6 µg/mL
same,MIC,[Candida] aaseri [2],31.2 µg/mL
same,MIC,Nakaseomyces glabratus [3],31.2 µg/mL
same,MIC,Pichia kudriavzevii [4],7.8 µg/mL
same,MIC,Pichia sporocuriosa [5],15.6 µg/mL
same,MFC,Candida albicans [6],31.2 µg/mL
same,MFC,Candida albicans [7],31.2 µg/mL
same,MFC,Candida albicans [8],15.6 µg/mL
same,MFC,Candida albicans [9],62.5 µg/mL
same,MFC,Candida albicans [10],15.6 µg/mL
same,MFC,Candida albicans [11],125 µg/mL
same,MFC,Candida albicans [12],62.5 µg/mL
same,MFC,Candida albicans [13],125 µg/mL
same,MFC,Candida albicans [14],125 µg/mL
same,MFC,Candida parapsilosis [15],62.5 µg/mL
same,MFC,[Candida] aaseri [16],125 µg/mL
same,MFC,Nakaseomyces glabratus [17],125 µg/mL
same,MFC,Pichia kudriavzevii [18],15.6 µg/mL
same,MFC,Pichia sporocuriosa [19],31.2 µg/mL
same,IC50,A549,1500 nM
same,IC50,[20],1400 nM
same,MIC,Staphylococcus aureus [21],3.9 µg/mL
same,MIC,Bacillus subtilis [22],3.9 µg/mL
same,MIC,Staphylococcus aureus [23],3.9 µg/mL
same,MIC,Micrococcus luteus [24],15.6 µg/mL
same,MIC,Raoultella planticola [25],7.8 µg/mL
same,MIC,Escherichia coli,> 125 µg/mL
same,MIC,Pseudomonas aeruginosa,> 125 µg/mL
same,MIC,Candida albicans [26],7.8 µg/mL
same,MBC,Bacillus subtilis [27],3.9 µg/mL
same,MBC,Staphylococcus aureus [28],7.8 µg/mL
same,MBC,Staphylococcus aureus [29],3.9 µg/mL
same,MBC,Micrococcus luteus [30],31.2 µg/mL
same,MBC,Raoultella planticola [31],15.6 µg/mL
same,IC50,Bacillus subtilis [32],2800 nM
same,IC50,Staphylococcus aureus [33],2500 nM
same,IC50,Staphylococcus aureus [34],1900 nM
same,IC50,Micrococcus luteus [35],9800 nM
same,IC50,Raoultella planticola [36],5100 nM
same,MIC,Candida albicans [37],15.6 µg/mL
same,MIC,Candida albicans [38],7.8 µg/mL
same,MIC,Candida albicans [39],7.8 µg/mL
same,MIC,Candida albicans [40],31.2 µg/mL
same,MIC,Candida albicans [41],62.5 µg/mL
same,MIC,Candida albicans [42],15.6 µg/mL
same,MIC,Candida albicans [43],31.2 µg/mL
same,MIC,Candida albicans [44],62.5 µg/mL
CCCN(C)C(=O)c1ccc(-c2cc(C3=C(N4CC4)C(=O)C=C(N4CC4)C3=O)no2)s1,MIC,Candida parapsilosis [1],15.6 µg/mL
same,MIC,[Candida] aaseri [2],7.8 µg/mL
same,MIC,Nakaseomyces glabratus [3],15.6 µg/mL
same,MIC,Pichia kudriavzevii [4],15.6 µg/mL
same,MIC,Pichia sporocuriosa [5],15.6 µg/mL
same,MFC,Candida albicans [6],62.5 µg/mL
same,MFC,Candida albicans [7],125 µg/mL
same,MFC,Candida albicans [8],125 µg/mL
same,MFC,Candida albicans [9],125 µg/mL
same,MFC,Candida albicans [10],31.2 µg/mL
same,MFC,Candida albicans [11],125 µg/mL
same,MFC,Candida albicans [12],125 µg/mL
same,MFC,Candida albicans [13],62.5 µg/mL
same,MFC,Candida albicans [14],31.2 µg/mL
same,MFC,Candida parapsilosis [15],31.2 µg/mL
same,MFC,[Candida] aaseri [16],15.6 µg/mL
same,MFC,Nakaseomyces glabratus [17],31.2 µg/mL
same,MFC,Pichia kudriavzevii [18],31.2 µg/mL
same,MFC,Pichia sporocuriosa [19],62.5 µg/mL
same,IC50,A549,2700 nM
same,IC50,[20],600 nM
same,MIC,Staphylococcus aureus [21],7.8 µg/mL
same,MIC,Bacillus subtilis [22],3.9 µg/mL
same,MIC,Staphylococcus aureus [23],15.6 µg/mL
same,MIC,Micrococcus luteus [24],15.6 µg/mL
same,MIC,Raoultella planticola [25],7.8 µg/mL
same,MIC,Escherichia coli,> 125 µg/mL
same,MIC,Pseudomonas aeruginosa,> 125 µg/mL
same,MIC,Candida albicans [26],7.8 µg/mL
same,MBC,Bacillus subtilis [27],7.8 µg/mL
same,MBC,Staphylococcus aureus [28],15.6 µg/mL
same,MBC,Staphylococcus aureus [29],31.2 µg/mL
same,MBC,Micrococcus luteus [30],31.2 µg/mL
same,MBC,Raoultella planticola [31],15.6 µg/mL
same,IC50,Bacillus subtilis [32],2200 nM
same,IC50,Staphylococcus aureus [33],4600 nM
same,IC50,Staphylococcus aureus [34],10600 nM
same,IC50,Micrococcus luteus [35],8900 nM
same,IC50,Raoultella planticola [36],3500 nM
same,MIC,Candida albicans [37],31.2 µg/mL
same,MIC,Candida albicans [38],62.5 µg/mL
same,MIC,Candida albicans [39],62.5 µg/mL
same,MIC,Candida albicans [40],62.5 µg/mL
same,MIC,Candida albicans [41],31.2 µg/mL
same,MIC,Candida albicans [42],62.5 µg/mL
same,MIC,Candida albicans [43],31.2 µg/mL
same,MIC,Candida albicans [44],15.6 µg/mL

# From ChEMBL document CHEMBL3808371, “Design, synthesis and biological evaluation of diaziridinyl quinone isoxazole hybrids” (Eur J Med Chem, 2016)
